Experimental data taken from patent US6887873B2, “Triazine derivatives and their application as antitelomerase agents” (Aventis Pharma S.A., priority 2001, dated 2005).

Columns and labels:
[1] = tested on: human telomerease (HL60 cell extract); assay: Antitelomerease activity: extension of oligonucleotide TS followed by PCR amplification, with HL60 extract; assay type: biochemical; settings: read-out: TRAP IC50
Procedure: The antitelomerease biological activity is determined by the following experimental protocol:
The leukaemia line HL60 is obtained from ATCC (American Type Culture Collection, Rockville, USA). The cells are cultured in suspension in RPMI 1640 medium containing L-glutamine at 2 mM, penicillin 200 U/ml, streptomycin 200 μg/ml, gentamycin 50 μg/ml and supplemented with 10% heat-inactivated foetal calf serum.
An aliquot of 10^5 cells is centrifuged at 3000×G and the supernatant discarded. The cell pellet is resuspended by several successive pipettings in 200 μl of lysis buffer containing 0.5% CHAPS, 10 mM Tris-HCl, pH 7.5, 1 mM MgCl2, 1 mM EGTA, 5 mM β-mercaptoethanol, 0.1 mM PMSF and 10% glycerol and is stored in ice for 30 minutes. The lysate is centrifuged at 160,000×G for 20 minutes at 4° C. and 160 μl of supernatant are recovered. The proteins in the extract are assayed by the Bradford method. The extract is stored at −80° C.
The inhibition of the telomerease activity is determined by a protocol for extension of the oligonucleotide TS (^5′AATCGTTCGAGCAGAGTT^3′), in the presence of a cellular extract enriched in telomerease activity and compounds which are added at various concentrations (10, 1, 0.1 and 0.01 μM). The extension reaction is followed by a PCR amplification of the extension products with the aid of the oligonucleotides TS and CXext (^5′[…]^3′).
The reaction medium is prepared based on the following composition:
The oligonucleotides are obtained from Eurogentec (Belgium) and are stored at −20° C. at a stock concentration of 1 mg/ml in distilled water.
The reaction samples are assembled in 0.2 ml PCR tubes and one drop of paraffin oil is deposited on each of the reactions of the experiment before closing the tubes.
The reaction samples are then incubated in a Cetus 4800-type PCR apparatus under the following temperature conditions: • 15 minutes at 30° C., • 1 minute at 90° C., • followed by 30 cycles of, • 30 seconds at 94° C., • 30 seconds at 50° C., • and 1 minute 30 seconds at 72° C., • followed by a final cycle of 2 minutes at 72° C.
For each of the samples, an aliquot of 10 μl is pipetted under the oil layer and mixed with 5 μl of a loading buffer containing:
The samples are then analysed by electrophoresis on 12% acrylamide gel in a 1×TBE buffer for 1 hour at a voltage of 200 volts, with the aid of a Novex electrophoresis system.
The acrylamide gels are then dried on a sheet of Whatmann 3 mm paper at 80° C. for 1 hour.
The analysis and the quantification of the reaction products are carried out with the aid of an InstantImager apparatus (Pacard).
For each compound concentration tested, the results are expressed as percentage inhibition of the reaction and calculated from the untreated enzymatic control and from the enzyme-free sample (blank) according to the following formula: (compound value−blank value/enzymatic control value−blank value)×100.
The concentration of compound inducing a 50% inhibition of the telomerease reaction (IC50) is determined with the aid of a semilogarithmic graphical representation of the inhibition values obtained as a function of each of the compound concentrations tested.
A compound is considered to be active as an antitelomerease agent when the quantity inhibiting 50% of the telomerease reaction is in particular less than 5 μM.

[2] = tested on: G-quadruplex of oligonucleotide GGGTTAGGGTTAGGGTTAGGG (3.5 repeats of the human telomereic motif); assay: G-quadruplex stabilizing activity, fluorescence Tm (FAM+DABCYL oligonucleotide); assay type: binding
Source text: The G-quadruplex stabilizing activity may be determined by a method using the formation of a complex with fluorescein of which the experimental protocol is described below.
All the nucleotides, modified or otherwise, were synthesized by Eurogentec SA, Seraing, Belgium. The oligonucleotide FAM+DABCYL carries the catalogue reference OL-0371-0802. It has the sequence: […] corresponding to 3.5 repeats of the human telomereic motif (strand rich in G). The fluorescein is attached to the 5′ end, the DABCYL to the 3′ end, by the chemical arms described by Eurogentec. The concentration of the samples is checked by spectrophotometry, recording the absorbance spectrum between 220 and 700 nm and using the molar extinction coefficient provided by the supplier.
All the experiments were carried out in a 10 mM sodium cacodylate buffer pH 7.6 containing 0.1 M lithium chloride (or sodium chloride). The absence of fluorescent contamination in the buffer was checked beforehand. The fluorescent oligonucleotide is added at the final concentration of 0.2 μM.
All the measurements of fluorescence were carried out on a Spex Fluorolog DM1B apparatus, using an excitation line width of 1.8 nm and an emission line width of 4.5 nm. The samples are placed in a microquartz cuvette of 0.2×1 cm. The temperature of the sample is controlled by an external water bath. The oligonucleotide alone was analysed at 20, 30, 40, 50, 60, 70 and 80° C. The emission spectra are recorded using an excitation wavelength of 470 nm. The excitation spectra are recorded using either 515 nm or 588 nm as emission wavelength. The spectra are corrected for the response of the instrument by reference curves. A high extinction (80-90%) of the fluorescence of fluorescein at room temperature is observed, in agreement with an intramolecular folding of the oligonucleotide at 20° C. in the form of a G-quadruplex, which induces juxtaposition of its 5′ and 3′ ends which are respectively linked to fluorescein and to DABCYL. This juxtaposition causes an already-described phenomenon of extinction of fluorescence which is used for “molecular beacons”.
An oligonucleotide stock solution at the strand concentration of 0.2 μM in 0.1 M LiCl, 10 mM cacodylate buffer, pH 7.6, is prepared beforehand, heated briefly at 90° C. and slowly cooled to 20° C., and then distributed in aliquots of 600 μl in the fluorescence cuvettes. 3 μl of water (for the control) or 3 μl of test product (stock at 200 μM, final concentration 1 μM) are then added and mixed. The samples are then allowed to incubate for at least 1 hour at 20° C. before each measurement. The use of longer incubation times (up to 24 hours) has no influence on the result obtained.
Each experiment allows the measurement of only one sample. The latter is first incubated at an initial temperature of 20° C., heated to 80° C. over 38 minutes, left for 5 minutes at 80° C. and then cooled to 20° C. over 62 minutes. During this time, the fluorescence is measured simultaneously at two emission wavelengths (515 nm and 588 nm) using 470 nm as excitation wavelength. A measurement is carried out every 30 seconds. The temperature of the water bath is recorded in parallel, and the fluorescence profile as a function of the temperature is reconstituted from these values. The fluorescence profiles are then normalized between 20° C. and 80° C., and the temperature for which the intensity of emission at 515 nm is the mean of those at high and low temperature is called Tm. Under these conditions, the Tm of the reference sample without addition of product is 44° C. in a lithium chloride buffer. This temperature is increased to more than 55° C. in a sodium chloride buffer. The addition of a G-quadruplex-stabilizing compound induces an increase in the Tm. This increase is judged to be significant if it is greater than 3°.

SMILES | IC50 [1] | G4 delta Tm [2]
Cc1cc(N)c2cc(Nc3nc(NCc4ccc(Cl)cc4)nc(Nc4ccc5nc(C)cc(N)c5c4)n3)ccc2n1 [Example 67] | 430 nM | 6.5 °C
Cc1cc(N)c2cc(Nc3nc(Nc4ccc5nc(C)cc(N)c5c4)nc(N4CCN(CCOCCO)CC4)n3)ccc2n1 [Example 69] | 160 nM | 18 °C
Cc1cc(N)c2cc(Nc3nc(Nc4ccc5nc(C)cc(N)c5c4)nc(N4CCCCC4CN4CCCCC4)n3)ccc2n1 (stereo not shown) [Example 70] | 560 nM | 9.5 °C
Cc1cc(N)c2cc(Nc3nc(Nc4ccc5nc(C)cc(N)c5c4)nc(N4CCN(C(=O)C5CCCO5)CC4)n3)ccc2n1 (stereo not shown) [Example 72] | 210 nM | 9.5 °C
COCCN1CCN(c2nc(Nc3ccc4nc(C)cc(N)c4c3)nc(Nc3ccc4nc(C)cc(N)c4c3)n2)CC1 [Example 73] | 370 nM | 9.5 °C
Cc1cc(N)c2cc(Nc3nc(NCCN4CCN(Cc5ccccc5)CC4)nc(Nc4ccc5nc(C)cc(N)c5c4)n3)ccc2n1 [Example 74] | 140 nM | 9.5 °C
Cc1cc(N)c2cc(Nc3nc(Nc4ccc5nc(C)cc(N)c5c4)nc(N4CCN(CCN5CCCC5)CC4)n3)ccc2n1 [Example 75] | 50 nM | 13.5 °C
Cc1cc(N)c2cc(Nc3nc(Nc4ccc5nc(C)cc(N)c5c4)nc(N4CCCN(CCCN5CCCC5)CC4)n3)ccc2n1 [Example 76] | 110 nM | 19 °C
Cc1cc(N)c2cc(Nc3nc(Nc4ccc5nc(C)cc(N)c5c4)nc(N4CCN(CCN(C)C)CC4)n3)ccc2n1 [Example 88] | 110 nM | 6 °C
Cc1cc(N)c2cc(Nc3nc(NCCN4CCCCC4)nc(Nc4ccc5nc(C)cc(N)c5c4)n3)ccc2n1 [Example 90] | 370 nM | 11 °C
Cc1cc(N)c2cc(Nc3nc(NCCNC(C)C)nc(Nc4ccc5nc(C)cc(N)c5c4)n3)ccc2n1 [Example 91] | 370 nM | 7 °C
Cc1cc(N)c2cc(Nc3nc(Nc4ccc5nc(C)cc(N)c5c4)nc(Nc4cccc5ccc(C)nc45)n3)ccc2n1 [Example 98] | 350 nM | 4 °C
CCN(CC)CCOc1nc(Nc2ccc3nc(C)cc(N)c3c2)nc(Nc2ccc3nc(C)cc(N)c3c2)n1 [Example 106] | 280 nM | 14.5 °C
Cc1cc(N)c2cc(Nc3nc(Nc4ccc5nc(C)cc(N)c5c4)nc(Oc4cccc5ccccc45)n3)ccc2n1 [Example 107] | 370 nM | 4.5 °C
Cc1cc(N)c2cc(Nc3nc(Nc4ccc5nc(C)cc(N)c5c4)nc(Oc4ccc5ccccc5c4)n3)ccc2n1 [Example 108] | 370 nM | 3 °C
Cc1cc(C)nc(Oc2nc(Nc3ccc4nc(C)cc(N)c4c3)nc(Nc3ccc4nc(C)cc(N)c4c3)n2)n1 [Example 109] | 340 nM | 4.5 °C
Cc1cc(N)c2cc(Nc3nc(Nc4ccc5nc(C)cc(N)c5c4)nc(Oc4ccccn4)n3)ccc2n1 [Example 110] | 610 nM | 20.5 °C
Cc1cc(N)c2cc(Nc3nc(Nc4ccc5nc(C)cc(N)c5c4)nc(Oc4ncccn4)n3)ccc2n1 [Example 111] | 480 nM | 23.5 °C
COCCOc1nc(Nc2ccc3nc(C)cc(N)c3c2)nc(Nc2ccc3nc(C)cc(N)c3c2)n1 [Example 112] | 320 nM | 15 °C
COc1ccc(COc2nc(Nc3ccc4nc(C)cc(N)c4c3)nc(Nc3ccc4nc(C)cc(N)c4c3)n2)cc1 [Example 113] | 530 nM | 6 °C
Cc1cc(N)c2cc(Nc3nc(Nc4ccc5nc(C)cc(N)c5c4)nc(OCc4ccccn4)n3)ccc2n1 [Example 114] | 1260 nM | 13.5 °C
COc1cccc(Sc2nc(Nc3ccc4nc(C)cc(N)c4c3)nc(Nc3ccc4nc(C)cc(N)c4c3)n2)c1 [Example 122] | 370 nM | 13.5 °C
COC(=O)CSc1nc(Nc2ccc3nc(C)cc(N)c3c2)nc(Nc2ccc3nc(C)cc(N)c3c2)n1 [Example 125] | 360 nM | 14.5 °C
CCN(CC)CCSc1nc(Nc2ccc3nc(C)cc(N)c3c2)nc(Nc2ccc3nc(C)cc(N)c3c2)n1 [Example 130] | 300 nM | 9 °C
CCN(CCSc1nc(Nc2ccc3nc(C)cc(N)c3c2)nc(Nc2ccc3nc(C)cc(N)c3c2)n1)Cc1ccccc1 [Example 131] | 910 nM | 4.5 °C
Cc1cc(N)c2cc(Nc3nc(Nc4ccc5nc(C)cc(N)c5c4)nc(SCCN(C)C)n3)ccc2n1 [Example 132] | 400 nM | 12.5 °C
Cc1cc(N(C)C)c2cc(Nc3nc(Nc4ccc5nc(C)cc(N(C)C)c5c4)nc(Sc4ccc5ccccc5n4)n3)ccc2n1 [Example 133, 2,4-bis(4-dimethylamino-2-methylquinolin-6-yl)amino-6-(quinolin-2-yl)thio-[1,3,5]triazine] | 180 nM | 25 °C
Cc1cc(N)c2cc(Nc3nc(Nc4ccc5nc(C)cc(N)c5c4)nc(N4CCC(O)C4)n3)ccc2n1 (stereo not shown) [Example 153] | 410 nM | 10 °C
Cc1cc(N)c2cc(Nc3nc(Nc4ccc5nc(C)cc(N)c5c4)nc(N4CCN(CCO)CC4)n3)ccc2n1 [Example 154] | 200 nM | 19 °C
